According to US20090143279A1 (priority 2007, published 2009):
Like-named read-outs stand apart in the source and are kept apart here.

What was measured:
[1] = tested on: mitochondrial membrane potential; type: cell-based, mouse
reactive oxygen species = type: cell-based, mouse
OXPHOS gene expression = type: cell-based, mouse
nuOXPHOS transcripts = type: cell-based, mouse
mtOXPHOS transcripts = type: cell-based, mouse
cytochrome c = type: cell-based, mouse
[2] = tested on: cellular dehydrogenase activity
[3] = normalized composite Z-score vs mock-treated (DMSO) wells, Conc 20 μM
[4] = 20 μM, composite Z-score vs DMSO
[5] = Conc 20 μM, normalized score vs mock-treated (DMSO) wells
[6] = composite Z-score vs DMSO, Conc 20 μM

Sequence of cytochrome c (P62897 whole entry): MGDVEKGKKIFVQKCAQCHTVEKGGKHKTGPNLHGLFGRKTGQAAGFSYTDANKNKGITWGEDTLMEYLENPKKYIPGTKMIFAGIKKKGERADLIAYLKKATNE

Row | Substance | ΔΨm [1, 3] | ROS (reactive oxygen species; [3]) | GE-HTS (OXPHOS gene expression; [3]) | nucOX (nuOXPHOS transcripts; [3]) | mitoOX (mtOXPHOS transcripts; [3]) | cyt c (cytochrome c; [3]) | Viability (C2C12 myotubes; [3]) | MTT [2, 3] | other results
1 | methyl 7-deshydroxypyrogallin-4-carboxylate | −1.695 | 0.145 | −1.502 | −1.394 | −1.395 | 0.133 | −0.873 | −1.261 | –
2 | methylorsellinic acid, ethyl ester | −0.478 | −0.293 | −0.990 | −1.040 | −0.770 | 0.754 | 0.459 | −0.661 | –
3 | muurolladie-3-one | 0.063 | −0.490 | −0.747 | −0.745 | −0.569 | −0.234 | −0.720 | −1.161 | –
4 | phytol | −0.233 | 0.940 | −0.177 | −0.098 | −0.270 | 0.020 | −0.520 | −0.544 | –
5 | polymyxin b sulfate | – | – | – | – | – | – | – | – | ΔΨm [1, 4]: 0.738; ROS (reactive oxygen species; [4]): 0.342; GE-HTS (OXPHOS gene expression; [4]): −0.382; nucOX (nuOXPHOS transcripts; [4]): −0.349; mitoOX (mtOXPHOS transcripts; [4]): −0.341; cyt c (cytochrome c; [4]): −0.323; Viability (C2C12 myotubes; [4]): 0.819; MTT [2, 4]: −0.522
6 | pteryxin | – | – | – | – | – | – | – | – | ΔΨm (composite Z-score) [1, 5]: 0.300; ROS (composite Z-score) (reactive oxygen species; [5]): 1.106; GE-HTS (composite Z-score) (OXPHOS gene expression; [5]): −0.101; nucOX (composite Z-score) (nuOXPHOS transcripts; [5]): −0.097; mitoOX (composite Z-score) (mtOXPHOS transcripts; [5]): −0.108; cyt c (composite Z-score) (cytochrome c; [5]): 0.711; Viability (composite Z-score) (C2C12 myotubes; [5]): −0.681; MTT (composite Z-score) [2, 5]: −1.515
7 | spiramycin | – | – | – | – | – | – | – | – | ΔΨm [1, 6]: −0.686; ROS (reactive oxygen species; [6]): 0.379; GE-HTS (OXPHOS gene expression; [6]): −0.691; nucOX (nuOXPHOS transcripts; [6]): −0.867; mitoOX (mtOXPHOS transcripts; [6]): −0.204; cyt c (cytochrome c; [6]): 0.216; Viability (C2C12 myotubes; [6]): 0.176; MTT [2, 6]: −0.770
8 | theaflavin monogallate | −0.581 | −0.820 | −0.211 | −0.017 | −0.612 | 1.252 | 0.945 | −0.786 | –
9 | totarol acetate | – | – | – | – | – | – | – | – | ΔΨm [1, 6]: −0.556; ROS (reactive oxygen species; [6]): 0.452; GE-HTS (OXPHOS gene expression; [6]): 0.574; nucOX (nuOXPHOS transcripts; [6]): 0.830; mitoOX (mtOXPHOS transcripts; [6]): −0.125; cyt c (cytochrome c; [6]): 1.207; Viability (C2C12 myotubes; [6]): −0.273; MTT [2, 6]: 0.730
